# Measurements taken from US20240115654A1, “INTRAVENOUS ADMINISTRATION OF ENGINEERED ANTIMICROBIAL AMPHIPHILIC PEPTIDES” (priority 2021, published 2024).
# Where “and” joins values, the source holds several entries; their conditions need not be identical. Equal entries are not always repeated. Where two headings read alike, the source gives them in different places. Peptide text beside a SMILES is read from it.
# [1] = Cohort 1, 0.05 mg/kg IV infusion, Geometric Mean
# [2] = Cohort 1, 0.05 mg/kg IV infusion, Max
# [3] = Cohort 1, 0.05 mg/kg IV infusion, Mean
# [4] = Cohort 1, 0.05 mg/kg IV infusion, Median
# [5] = Cohort 1, 0.05 mg/kg IV infusion, Min
# [6] = Cohort 1, 0.05 mg/kg IV infusion, cohort Geometric Mean
# [7] = Cohort 1, 0.05 mg/kg IV infusion, cohort Mean
# [8] = Cohort 1, 0.05 mg/kg IV infusion, cohort Median
# [9] = Cohort 1, 0.05 mg/kg IV infusion, individual subject
# [10] = Cohort 1, 0.05 mg/kg IV infusion, individual subjects
# [11] = Cohort 3b and 4 section: over the 10-fold increase in dose
# [12] = Cohort 3b and 4 section: over the […] increase in dose
# [13] = Cohort 3b, […] IV infusion 2 hours, Max
# [14] = Cohort 3b, […] IV infusion 2 hours, Min
# 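Further: phase 1 study in human subjects given one IV dose of the peptide, enrolled in sequential ascending-dose cohorts and randomized to peptide or placebo.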
smiles,measurement,setting,value
CC(C)[C@H](NC(=O)[C@H](Cc1c[nH]c2ccccc12)NC(=O)[C@H](CCCNC(=N)N)NC(=O)[C@H](CCCNC(=N)N)NC(=O)[C@@H](NC(=O)[C@@H](NC(=O)[C@H](CCCNC(=N)N)NC(=O)[C@@H](NC(=O)[C@@H](NC(=O)[C@H](CCCNC(=N)N)NC(=O)[C@H](CCCNC(=N)N)NC(=O)[C@H](Cc1c[nH]c2ccccc12)NC(=O)[C@@H](NC(=O)[C@H](CCCNC(=N)N)NC(=O)[C@H](CCCNC(=N)N)NC(=O)[C@@H](NC(=O)[C@H](CCCNC(=N)N)NC(=O)[C@H](CCCNC(=N)N)NC(=O)[C@@H](NC(=O)[C@H](Cc1c[nH]c2ccccc12)NC(=O)[C@H](CCCNC(=N)N)NC(=O)[C@@H](N)CCCNC(=N)N)C(C)C)C(C)C)C(C)C)C(C)C)C(C)C)C(C)C)C(C)C)C(=O)N[C@@H](CCCNC(=N)N)C(=O)N[C@@H](CCCNC(=N)N)C(N)=O [SEQ ID NO: 1] (H-RRWVRRVRRVWRRVVRVVRRWVRR-NH2),"Plasma Concentration by Nominal Time from Start of Infusion, Mean","Cohort 1, 0.05 mg/kg IV 1-hr infusion, 49 h, cohort mean",0.00 ng/mL
same,Plasma Concentration by Nominal Time from Start of Infusion,"Cohort 1, 0.05 mg/kg IV 1 hr infusion, 0.0 h, individual subjects",0.00 ng/mL
same,Plasma Concentration by Nominal Time from Start of Infusion,"Cohort 1, 0.05 mg/kg IV 1 hr infusion, 9.0 h, individual subjects",63.2 ng/mL
same,Plasma Concentration by Nominal Time from Start of Infusion,"Cohort 1, 0.05 mg/kg IV 1 hr infusion, 13 h, individual subjects",32.9 ng/mL
same,Plasma Concentration by Nominal Time from Start of Infusion,"Cohort 1, 0.05 mg/kg IV 1 hr infusion, 21 h, individual subjects",0.00 ng/mL
same,Plasma Concentration by Nominal Time from Start of Infusion,"Cohort 1, 0.05 mg/kg IV 1 hr infusion, 25 h, individual subjects",0.00 ng/mL
same,Plasma Concentration by Nominal Time from Start of Infusion,"Cohort 1, 0.05 mg/kg IV 1 hr infusion, 37 h, individual subjects",0.00 ng/mL
same,"Plasma Concentration by Nominal Time from Start of Infusion, Mean","Cohort 1, 0.05 mg/kg IV 1 hr infusion, 49 h, cohort mean N 6",0.00 ng/mL
same,Plasma Concentration by Nominal Time from Start of Infusion,"Cohort 1, 0.05 mg/kg IV 1 hr infusion, 49 h, individual subjects",0.00 ng/mL
same,AUCextrap,[1],8.36%
same,CL/F,[1],0.522 mL/min/kg
same,Tlast,[1],24 h
same,λz,[1],0.0946 h⁻¹
same,AUC0-24,[2],1610 ng·h/mL
same,AUC(0-inf),[2],1820 ng·h/mL
same,AUC(0-t),[2],1720 ng·h/mL
same,AUCextrap,[2],12.1%
same,CL/F,[2],0.595 mL/min/kg
same,Cmax,[2],341 ng/mL
same,Tlast,[2],37 h
same,t1/2,[2],8.59 h
same,λz,[2],0.105 h⁻¹
same,AUCextrap,[3],8.87%
same,CL/F,[3],0.525 mL/min/kg
same,Tlast,[3],25 h
same,λz,[3],0.0950 h⁻¹
same,AUCextrap,[4],8.12%
same,Tlast,[4],25 h
same,λz,[4],0.0951 h⁻¹
same,AUC0-24,[5],619 ng·h/mL
same,AUC(0-t),[5],515 ng·h/mL
same,AUCextrap,[5],4.54%
same,CL/F,[5],0.457 mL/min/kg
same,Cmax,[5],170 ng/mL
same,Tlast,[5],13 h
same,t1/2,[5],6.62 h
same,λz,[5],0.0807 h⁻¹
same,AUCextrap,[6],8.36%
same,CL/F,[6],0.522 mL/min/kg
same,Tlast,[6],24 h
same,λz,[6],0.0946 h⁻¹
same,AUCextrap,[7],8.87%
same,CL/F,[7],0.525 mL/min/kg
same,Tlast,[7],25 h
same,λz,[7],0.0950 h⁻¹
same,AUCextrap,[8],8.12%
same,Tlast,[8],25 h
same,λz,[8],0.0951 h⁻¹
same,AUC(0-inf),[9],1490 ng·h/mL and 1800 ng·h/mL and 1820 ng·h/mL
same,CL/F,[9],0.595 mL/min/kg and 0.562 mL/min/kg
same,AUC(0-inf),[10],1490 ng·h/mL and 1800 ng·h/mL and 1820 ng·h/mL
same,Tlast,[10],25 h (4×) and 13 h and 37 h
same,CL/F,"Cohort 2, […] IV infusion, Max",1.44 mL/min/kg
same,t1/2,"Cohort 2, […] IV infusion, Max",15.5 h
same,CL/F,"Cohort 2, […] IV infusion, Mean",0.878 mL/min/kg
same,CL/F,"Cohort 2, […] IV infusion, Median",0.82 mL/min/kg
same,CL/F,"Cohort 2, […] IV infusion, Min",0.322 mL/min/kg
same,t1/2,"Cohort 2, […] IV infusion, Min",7.51 h
same,CL/F,"Cohort 2, […] IV infusion, cohort Mean",0.878 mL/min/kg
same,CL/F,"Cohort 2, […] IV infusion, cohort Median",0.82 mL/min/kg
same,CL/F,"Cohort 3, […] IV infusion, Geometric Mean",0.91 mL/min/kg
same,CL/F,"Cohort 3, […] IV infusion, Max",4.3 mL/min/kg
same,t1/2,"Cohort 3, […] IV infusion, Max",21.8 h
same,CL/F,"Cohort 3, […] IV infusion, Mean",1.4 mL/min/kg
same,CL/F,"Cohort 3, […] IV infusion, Min",0.295 mL/min/kg
same,t1/2,"Cohort 3, […] IV infusion, Min",5.80 h
same,CL/F,"Cohort 3, […] IV infusion, cohort Geometric Mean",0.91 mL/min/kg
same,CL/F,"Cohort 3, […] IV infusion, cohort Mean",1.4 mL/min/kg
same,increase of AUC0-t,[11],6.4 fold
same,increase of mean AUC0-24,[11],5.8 fold
same,increase of mean Cmax,[11],7.1 fold
same,increase of AUC0-t,[12],4.2 fold
same,increase of mean AUC0-24,[12],3.7 fold
same,increase of mean Cmax,[12],3.7 fold
same,CL/F,"Cohort 3b, […] IV infusion 2 hours, Geometric Mean",0.748 mL/min/kg
same,CL/F,[13],1.36 mL/min/kg
same,t1/2,[13],17.5 h
same,CL/F,"Cohort 3b, […] IV infusion 2 hours, Mean",0.795 mL/min/kg
same,CL/F,"Cohort 3b, […] IV infusion 2 hours, Median",0.76 mL/min/kg
same,CL/F,[14],0.415 mL/min/kg
same,t1/2,[14],9.72 h
same,CL/F,"Cohort 3b, […] IV, infusion 2 hours, cohort Geometric Mean",0.748 mL/min/kg
same,CL/F,"Cohort 3b, […] IV, infusion 2 hours, cohort Mean",0.795 mL/min/kg
same,CL/F,"Cohort 3b, […] IV, infusion 2 hours, cohort Median",0.76 mL/min/kg
same,"Plasma Concentration by Nominal Time from Start of Infusion, Mean","Cohort 4, 0.5 mg/kg IV 2-hr infusion, 0.0 h, cohort mean",0.00 ng/mL
same,AUCextrap,"Cohort 4, 0.5 mg/kg IV infusion 2 hours, Geometric Mean",7.38%
same,AUC0-24,"Cohort 4, 0.5 mg/kg IV infusion 2 hours, Max",10400 ng·h/mL
